Where a name gives a salt, the structure may show the parent alone.

The values below come from patent publication EP4424303A1, “LENVATINIB COMPOSITION WITH IMPROVED BIOAVAILABILITY” (STADA ARZNEIMITTEL AG, priority 2023, dated 2024).

This series can be described thus: Saturation (equilibrium) solubility by shake-flask technique. The series is classed as physicochemical. The following applies: thermodynamic from solid, 37 °C ± 1 °C. The protocol: The equilibrium solubility of Lenvatinib mesylate in different dissolution media at 37 °C ± 1 °C was measured by shake-flask technique. The dissolution media were prepared according to USP. The pH for each test solution was measured after the addition of the drug substance and at the end of the equilibrium solubility study.
1. Table 1: saturation solubility of Lenvatinib mesylate depending on pH

Take `COc1cc2nccc(Oc3ccc(NC(=O)NC4CC4)c(Cl)c3)c2cc1C(N)=O` [Lenvatinib mesylate, 4-[3-chloro-4-(cyclopropylaminocarbonyl)aminophenoxy]-7-methoxy-6-quinolinecarboxamide]: the solubility (commonly the dissolved amount per volume that the medium holds) (USP dissolution medium pH 2.0, simulated gastric fluid, pH 2.0, Initial pH 2.0, Final pH 1.88) was 2620 µg/mL; the solubility (USP dissolution medium pH 4.5, aqueous buffer, pH 4.5, Initial pH 4.52, Final pH 4.38) is 13 µg/mL; the solubility (USP dissolution medium pH 5.5, aqueous buffer, pH 5.5, Initial pH 5.49, Final pH 5.25) was determined as 3 µg/mL; the solubility (USP dissolution medium pH 6.8, aqueous buffer, pH 6.8, Initial pH 6.82, Final pH 6.68) is 1 µg/mL; the solubility (simulated gastric fluid, 0.1N HCl, Initial pH 1.1, Final pH 1.23) was 1830 µg/mL.
